We go through 24 compounds from patent US8822455B2, “Fused aminodihydrothiazine derivatives” (Eisai R&D Management Co., Ltd., priority 2011, dated 2014).

The experiment concerns Aβ42. Nature of the experiment: In vitro cellular assay (Aβ42): quantification of Aβ peptide in culture of neurons from rat fetus brain (ELISA). Format: cell-based. The settings on record: Primary cortical neuron, 72 h, rat primary cortical neurons (embryonic day 18 Wistar), 3 days after addition of compound, read-out: Cell IC50. As for the experimental part:
In vitro Cellular Assay (Aβ42):
Quantification of AβPeptide in Culture of Neurons from Rat Fetus Brain
(1) Rat Primary Neuronal Culture
Primary neuronal cultures were prepared from the cerebral cortex of embryonic day 18 Wistar rats (Charles River, UK). Specifically, the embryos were aseptically removed from pregnant rats under ether anesthesia. The brain was isolated from the embryo and immersed in HBSS (Sigma Aldrich #H9269) containing 10 mM HEPES (Gibco #15630-056). The cerebral cortex was collected from the isolated brain under a stereoscopic microscope. The cerebral cortex fragments collected were enzymatically treated in an enzyme solution containing 0.05% trypsin-EDTA solution (GIBCO, #25300) at 37° C. for 20 minutes to disperse the cells. The cells were then washed twice and then gently resuspended in Neurobasal medium (Gibco #21103) supplemented with 2% B27 supplement (GIBCO #17504-044), 0.5 mM L-glutamine (GIBCO #25030), 1×N2 (GIBCO #17502-048), 100 ug/ml Pen/Strep (GIBCO 15140-122) and 5% heat inactivated FCS (PAA #A15-701). The cell dispersion was filtered through a 40-μm nylon mesh (BD Falcon #352340) to remove the remaining cell mass, and thus a neuronal cell suspension was obtained. The neuronal cell suspension was diluted with the medium above and then plated in a volume of 100 μL/well at an initial cell density of 3.25×10^5 cells/ml in poly-D-lysine coated 96-well culture plate (Greiner #655940). The plated cells were cultured in the culture plate at 37° C. in 5% CO2-95% air for 24 hrs. The total amount of the medium was replaced with ‘assay Neurobasal medium’ (as above excluding heat inactivated FCS), and then the cells were cultured for a further five days.
The drug was added to the culture plate on Day 6 of culture as follows. 8 point compound serial dilutions were generated in DMSO at a concentration of ×1000 that of the final assay concentration (FAC). Compound solutions were then prepared by adding 999 ul of ‘Assay Neurobasal media’ (as described in above section) to 1 ul of DMSO compound stock. The total amount of the medium was removed from each of the cell plate wells, and 200 μL/well of compound solution was added. The final DMSO concentration was 0.1%.
The cells were cultured for either 1 or 3 days after addition of the compound for ABx-40 and ABx-42 assays respectively. 150 μl of sample medium was collected and used as the ELISA sample.
Human/Rat β Amyloid (42) ELISA Kit Wako (#290-62601) and Human/Rat β Amyloid (40) ELISA Kit Wako (#294-62501) from Wako Pure Chemical Industries, Ltd. were used for Aβ ELISA Aβ ELISA was carried out according to the protocols recommended by the manufacturers, described in the documents accompanying the kits. The results were shown as percentage of the control groups and IC50 values for each compound were determined using four parameter logistic fit model using the XLFIT5 software package (IDBS).
In general terms: An ELISA detects its analyte on a solid surface through an enzyme-linked reagent.

What is called IC50 is the concentration needed to halve the response being measured. For the compound `C[C@H]1OC[C@]2(c3cc(-c4cncnc4)c(F)cc3F)N=C(N)SC[C@H]12` (relative stereo) [Example 31, (4aS*,5R*,7aS*)-7a-(2,4-Difluoro-5-(pyrimidin-5-yl)phenyl)-5-methyl-4a,5,7,7a-tetrahydro-4H-furo[3,4-d][1,3]thiazin-2-amine], the IC50 was determined as 20 nM.
In the case of `C[C@H]1OC[C@]2(c3cc(-c4cncnc4)ccc3F)N=C(N)SC[C@H]12` [Example 1, (4aS,5R,7aS)-7a-(2-Fluoro-5-(pyrimidin-5-yl)phenyl)-5-methyl-4a,5,7,7a-tetrahydro-4H-furo[3,4-d][1,3]thiazin-2-amine] it was 65 nM; in that of `C[C@H]1OC[C@]2(c3cc(-c4ncc[nH]4)ccc3F)N=C(N)SC[C@H]12` [Example 2, (4aS,5R,7aS)-7a-(2-Fluoro-5-(1H-imidazo-2-yl)phenyl)-5-methyl-4a,5,7,7a-tetrahydro-4H-furo[3,4-d][1,3]thiazin-2-amine], 749 nM; in that of `C[C@H]1OC[C@]2(c3cc(-c4cnc(-c5cnccn5)[nH]4)ccc3F)N=C(N)SC[C@H]12` [Example 3, (4aS,5R,7aS)-7a-(2-fluoro-5-(2-(pyrazin-2-yl)-1H-imidazol-5-yl)phenyl)-5-methyl-4a,5,7,7a-tetrahydro-4H-furo[3,4-d][1,3]thiazin-2-amine], 69 nM.
Next, `C[C@H]1OC[C@]2(c3cc(-c4cccnc4)ccc3F)N=C(N)SC[C@H]12` [Example 4, (4aS,5R,7aS)-7a-(2-Fluoro-5-(pyridin-3-yl)phenyl)-5-methyl-4a,5,7,7a-tetrahydro-4H-furo[3,4-d][1,3]thiazin-2-amine]: 106 nM.
`C[C@H]1OC[C@]2(c3cc(-c4ccccc4)ccc3F)N=C(N)SC[C@H]12` [Example 5, (4aS,5R,7aS)-7a-(4-Fluoro-[1,1′-biphenyl]-3-yl)-5-methyl-4a,5,7,7a-tetrahydro-4H-furo[3,4-d][1,3]thiazin-2-amine]: the IC50 is 450 nM.
For `C[C@H]1OC[C@]2(c3cc(-c4ccccc4F)ccc3F)N=C(N)SC[C@H]12` [Example 6, (4aS,5R,7aS)-7a-(2′,4-difluoro-[1,1′-biphenyl]-3-yl)-5-methyl-4a,5,7,7a-tetrahydro-4H-furo[3,4-d][1,3]thiazin-2-amine], the IC50 turned out to be 244 nM.
With `C[C@H]1OC[C@]2(c3cc(-c4cccnc4F)ccc3F)N=C(N)SC[C@H]12` [Example 7, (4aS,5R,7aS)-7a-(2-Fluoro-5-(2-fluoropyridin-3-yl)phenyl)-5-methyl-4a,5,7,7a-tetrahydro-4H-furo[3,4-d][1,3]thiazin-2-amine], the IC50 came to 62 nM.
With `COc1cncc(-c2ccc(F)c([C@]34CO[C@H](C)[C@H]3CSC(N)=N4)c2)c1` [Example 8, (4aS,5R,7aS)-7a-(2-fluoro-5-(5-methoxypyridin-3-yl)phenyl)-5-methyl-4a,5,7,7a-tetrahydro-4H-furo[3,4-d][1,3]thiazin-2-amine], the IC50 was determined as 23 nM.
In the case of `C[C@H]1OC[C@]2(c3cc(-c4cncc(F)c4)ccc3F)N=C(N)SC[C@H]12` [Example 9, (4aS,5R,7aS)-7a-(2-Fluoro-5-(5-fluoropyridin-3-yl)phenyl)-5-methyl-4a,5,7,7a-tetrahydro-4H-furo[3,4-d][1,3]thiazin-2-amine] it was 60 nM.
Turning to `C[C@H]1OC[C@]2(c3cc(-c4ccc(F)nc4)ccc3F)N=C(N)SC[C@H]12` [Example 10, (4aS,5R,7aS)-7a-(2-Fluoro-5-(6-fluoropyridin-3-yl)phenyl)-5-methyl-4a,5,7,7a-tetrahydro-4H-furo[3,4-d][1,3]thiazin-2-amine], the IC50 came to 94 nM.
Next, `COc1ccc(-c2ccc(F)c([C@]34CO[C@H](C)[C@H]3CSC(N)=N4)c2)cn1` [Example 11, (4aS,5R,7aS)-7a-(2-Fluoro-5-(6-methoxypyridin-3-yl)phenyl)-5-methyl-4a,5,7,7a-tetrahydro-4H-furo[3,4-d][1,3]thiazin-2-amine]: 839 nM; `C[C@H]1OC[C@]2(c3cc(-c4cc(F)ccc4F)ccc3F)N=C(N)SC[C@H]12` [Example 12, (4aS,5R,7aS)-5-Methyl-7a-(2′,4,5′-trifluoro-[1,1′-biphenyl]-3-yl)-4a,5,7,7a-tetrahydro-4H-furo[3,4-d][1,3]thiazin-2-amine]: 114 nM; `C[C@H]1OC[C@]2(c3cc(-c4cncc(C#N)c4)ccc3F)N=C(N)SC[C@H]12` [Example 13, 5-(3-((4aS,5R,7aS)-2-Amino-5-methyl-4a,5,7,7a-tetrahydro-4H-furo[3,4-d][1,3]thiazin-7a-yl)-4-fluorophenyl)nicotinonitrile]: 62 nM.
Next, `C[C@H]1OC[C@]2(c3cc(-c4cncc(C(F)(F)F)c4)ccc3F)N=C(N)SC[C@H]12` [Example 14, (4aS,5R,7aS)-7a-(2-Fluoro-5-(5-(trifluoromethyl)pyridine-3-yl)phenyl)-5-methyl-4a,5,7,7a-tetrahydro-4H-furo[3,4-d][1,3]thiazin-2-amine]: 136 nM; `Cc1cncc(-c2ccc(F)c([C@]34CO[C@H](C)[C@H]3CSC(N)=N4)c2)c1` [Example 15, (4aS,5R,7aS)-7a-(2-Fluoro-5-(5-methylpyridin-3-yl)phenyl)-5-methyl-4a,5,7,7a-tetrahydro-4H-furo[3,4-d][1,3]thiazin-2-amine]: 101 nM.
In the case of `Cc1cnc(F)c(-c2ccc(F)c([C@]34CO[C@H](C)[C@H]3CSC(N)=N4)c2)c1` [Example 16, (4aS,5R,7aS)-7a-(2-fluoro-5-(2-fluoro-5-methylpyridin-3-yl)phenyl)-5-methyl-4a,5,7,7a-tetrahydro-4H-furo[3,4-d][1,3]thiazin-2-amine] it was 58 nM; in that of `C[C@H]1OC[C@]2(c3cc(-c4ccn[nH]4)ccc3F)N=C(N)SC[C@H]12` [Example 17, (4aS,5R,7aS)-7a-(2-Fluoro-5-(1H-pyrazol-5-yl)phenyl)-5-methyl-4a,5,7,7a-tetrahydro-4H-furo[3,4-d][1,3]-thiazin-2-amine], 977 nM.
For `Cc1ncccc1-c1ccc(F)c([C@]23CO[C@H](C)[C@H]2CSC(N)=N3)c1` [Example 18, (4aS,5R,7aS)-7a-(2-fluoro-5-(2-methylpyridin-3-yl)phenyl)-5-methyl-4a,5,7,7a-tetrahydro-4H-furo[3,4-d][1,3]thiazin-2-amine], the IC50 amounted to 217 nM.
In the case of `CC#Cc1cncc(-c2ccc(F)c([C@]34CO[C@H](C)[C@H]3CSC(N)=N4)c2)c1` [Example 19, (4aS,5R,7aS)-7a-(2-fluoro-5-(5-(prop-1-yn-1-yl)pyridin-3-yl)phenyl)-5-methyl-4a 5,7,7a-tetrahydro-4H-furo[3,4-d][1,3]thiazin-2-amine] it was 17 nM.
Regarding `C[C@H]1OC[C@]2(c3cc(-c4ccnn4C)ccc3F)N=C(N)SC[C@H]12` [Example 20, (4aS,5R,7aS)-7a-(2-fluoro-5-(1-methyl-1H-pyrazol-5-yl)phenyl)-5-methyl-4a,5,7,7a-tetrahydro-4H-furo[3,4-d]thiazin-2-amine], the IC50 is over 1000 nM.
`C[C@H]1OC[C@]2(c3cc(-c4cncc(OC5CC5)c4)ccc3F)N=C(N)SC[C@H]12` [Example 21, (4aS,5R,7aS)-7a-(5-(5-cyclopropoxypyridin-3-yl)-2-fluorophenyl)-5-methyl-4a,5,7,7a-tetrahydro-4H-furo[3,4-d][1,3]thiazin-2-amine]: the IC50 is 127 nM.
Next, `C[C@H]1OC[C@]2(c3cc(-c4cnccn4)ccc3F)N=C(N)SC[C@H]12` [Example 22, (4aS,5R,7aS)-7a-(2-fluoro-5-(pyrazin-2-yl)phenyl)-5-methyl-4a,5,7,7a-tetrahydro-4H-furo[3,4-d][1,3]thiazin-2-amine]: 55 nM.
Next, `C[C@H]1OC[C@]2(c3cc(-c4cccnn4)ccc3F)N=C(N)SC[C@H]12` [Example 23, (4aS,5R,7aS)-7a-(2-fluoro-5-(pyridazin-3-yl)phenyl)-5-methyl-4a,5,7,7a-tetrahydro-4H-furo[3,4-d][1,3]thiazin-2-amine]: 572 nM.
